Values of other authors in US6528539B1, “Stable formulation containing fumagillin” (Sanofi-Synthelabo, priority 1999, dated 2003).

Settings: fumagillin as such; must be stored at −80° C.; literature studies named in b6

stability at ambient temperature: highly unstable at ambient temperature
SMILES: COC1C(OC(=O)/C=C/C=C/C=C/C=C/C(=O)O)CCC2(CO2)C1[C@@]1(C)O[C@@H]1CC=C(C)C (stereo in doubt) [Fumagillin, 2,4,6,8-decatetraenedioic acid mono[4-(1,2-epoxy-1,5-dimethyl-4-hexenyl)-5-methoxy-1-oxaspiro[2.5]oct-6-yl] ester]
